Drawing on PubChem BioAssay AID330 (DTP/NCI, 2004), this text covers T/C for 24 compounds.

The structures appear in SMILES notation. Where “and” joins values, the source holds several entries; their conditions need not be identical. Identical values can stand only once. Toxic doses and inconclusive results are not listed.

The assay relates to P388 leukemia ip, CD2F1 mice, survival T/C. Kind of assay: NCI In Vivo Anticancer Drug Screen. Data for tumor model P388 Leukemia (intraperitoneal) in CD2F1 (CDF1) mice. As to conditions: endpoint: median survival time, higher = longer survival. A digest of the protocol: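 Mice carrying the transplanted tumor received test compound or vehicle. Survival was recorded in each group, and the value is the treated-group measurement divided by that of the vehicle-treated control group.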

The mark [1] stands for this setting: dose: 50.0 mg/kg/injection, schedule: Q01DX005 (ip), vehicle: Klucel (hydroxypropylcellulose) (HPC).
[2] abbreviates: dose: 50.0 mg/kg/injection, schedule: Q01DX009 (ip), vehicle: saline with Tween-80.
[3] abbreviates: dose: 100.0 mg/kg/injection, schedule: Q01DX009 (ip), vehicle: saline with Tween-80.
Where [4] appears, read: dose: 200.0 mg/kg/injection, schedule: Q01DX009 (ip), vehicle: saline with Tween-80.
Where [5] appears, read: dose: 50.0 mg/kg/injection, schedule: Q01DX009 (ip), vehicle: Klucel (hydroxypropylcellulose) (HPC).
[6] abbreviates: dose: 100.0 mg/kg/injection, schedule: Q01DX001 (ip), vehicle: Klucel (hydroxypropylcellulose) (HPC).
Setting [7] is: dose: 200.0 mg/kg/injection, schedule: Q01DX001 (ip), vehicle: Klucel (hydroxypropylcellulose) (HPC).
[8] abbreviates: dose: 60.0 mg/kg/injection, schedule: Q01DX005 (ip), vehicle: Klucel (hydroxypropylcellulose) (HPC).
Where [9] appears, read: dose: 240.0 mg/kg/injection, schedule: Q01DX005 (ip), vehicle: Klucel (hydroxypropylcellulose) (HPC).
[10] abbreviates: dose: 50.0 mg/kg/injection, schedule: Q01DX005 (ip), vehicle: saline with Tween-80.
[11] abbreviates: dose: 100.0 mg/kg/injection, schedule: Q01DX005 (ip), vehicle: saline with Tween-80.
The mark [12] stands for this setting: dose: 100.0 mg/kg/injection, schedule: Q01DX005 (ip), vehicle: Klucel (hydroxypropylcellulose) (HPC).

As for `CC(=O)c1ccccc1N=O`, the T/C runs as follows: (dose: 50.0 mg/kg/injection, schedule: Q01DX001 (ip), vehicle: other) 102 % of control; (dose: 100.0 mg/kg/injection, schedule: Q01DX001 (ip), vehicle: other) 101 % of control and 107 % of control; (dose: 200.0 mg/kg/injection, schedule: Q01DX001 (ip), vehicle: other) 100 % of control; (dose: 400.0 mg/kg/injection, schedule: Q01DX001 (ip), vehicle: other) 102 % of control.

For the compound `CCc1ccccc1NC(=O)C(=O)CC(=O)C1=C(C)Nc2ccccc2S1`, the T/C is, setting by setting: (dose: 60.0 mg/kg/injection, schedule: Q01DX005 (ip), vehicle: saline with Tween-80) 90 % of control; (dose: 120.0 mg/kg/injection, schedule: Q01DX005 (ip), vehicle: saline with Tween-80) 96 % of control; (dose: 240.0 mg/kg/injection, schedule: Q01DX005 (ip), vehicle: saline with Tween-80) 99 % of control.

Consider `C1=C(N2CCOCC2)N(c2ccccc2)c2ccccc2N=C1N1CCCC1`, for which the T/C is, setting by setting: (dose: 12.5 mg/kg/injection, schedule: Q01DX005 (ip), vehicle: Klucel (hydroxypropylcellulose) (HPC)) 100 % of control; (dose: 25.0 mg/kg/injection, schedule: Q01DX005 (ip), vehicle: Klucel (hydroxypropylcellulose) (HPC)) 91 % of control; under setting [1], 103 % of control and 96 % of control.

On to `CC12COC3(C)CCC(C)(OC1)N23` (configuration not stated), for which the T/C under setting [2] was 100 % of control, the T/C under setting [3] was 97 % of control and the T/C under setting [4] was 103 % of control.

On to `CCC1CN2CCc3cc(OC)c(OC)cc3C2CC1CCCl` (configuration not stated), for which the T/C runs as follows: (dose: 12.5 mg/kg/injection, schedule: Q01DX009 (ip), vehicle: Klucel (hydroxypropylcellulose) (HPC)) 94 % of control; (dose: 25.0 mg/kg/injection, schedule: Q01DX009 (ip), vehicle: Klucel (hydroxypropylcellulose) (HPC)) 103 % of control; under setting [5], 103 % of control and 106 % of control.

Take `CCC(=O)[C@]1(O)Cc2c(O)c3c(c(O)c2[C@@H](OC2CC(N)C(O)C(C)O2)C1)C(=O)c1c(OC)cccc1C3=O` (some centres not stated): the T/C reads like this: (dose: 3.13 mg/kg/injection, schedule: Q04DX003 (ip), vehicle: water) 102 % of control; (dose: 6.25 mg/kg/injection, schedule: Q04DX003 (ip), vehicle: water) 112 % of control; (dose: 12.5 mg/kg/injection, schedule: Q04DX003 (ip), vehicle: water) 119 % of control; (dose: 25.0 mg/kg/injection, schedule: Q04DX003 (ip), vehicle: water) 119 % of control; (dose: 50.0 mg/kg/injection, schedule: Q04DX003 (ip), vehicle: water) 110 % of control.

Turning to `COC(=O)C1(C)OS(=O)(=O)c2ccccc21` (configuration not stated), the T/C by setting is: under setting [2], 101 % of control; under setting [3], 101 % of control; under setting [4], 104 % of control.

On to `CCOC(=O)N1CCN(CC(O)Cn2c(=O)c3c(nc(N4CCN(C(=O)OCC)CC4)n3C)n(C)c2=O)CC1` (configuration not stated), for which the T/C was 100 % of control under setting [5]; 101 % of control (dose: 100.0 mg/kg/injection, schedule: Q01DX009 (ip), vehicle: Klucel (hydroxypropylcellulose) (HPC)); 99 % of control (dose: 200.0 mg/kg/injection, schedule: Q01DX009 (ip), vehicle: Klucel (hydroxypropylcellulose) (HPC)).

For `CC(C)(C)/[N+]([O-])=C/C=C\C=C\C=O`, the T/C runs as follows: (dose: 50.0 mg/kg/injection, schedule: Q01DX001 (ip), vehicle: Klucel (hydroxypropylcellulose) (HPC)) 116 % of control; under setting [6], 120 % of control; under setting [7], 122 % of control.

On to `O=C(NCc1nc2ccccc2[nH]1)C(F)(F)F`, for which the T/C runs as follows: under setting [8], 103 % of control; (dose: 120.0 mg/kg/injection, schedule: Q01DX005 (ip), vehicle: Klucel (hydroxypropylcellulose) (HPC)) 105 % of control; under setting [9], 104 % of control.

Consider `CCNc1ccc2c(c1)C(=O)N(OS(C)(=O)=O)C2=O`, for which the T/C reads like this: under setting [10], 97 % of control; under setting [11], 92 % of control.

As for `C=CC1C(=O)N(C)[C@H](C(C)(C)C)N1C(=O)c1ccccc1` (some centres not stated), the T/C is 100 % of control (dose: 50.0 mg/kg/injection, schedule: Q01DX005 (ip), vehicle: saline); 93 % of control (dose: 100.0 mg/kg/injection, schedule: Q01DX005 (ip), vehicle: saline); 113 % of control (dose: 200.0 mg/kg/injection, schedule: Q01DX005 (ip), vehicle: saline).

Turning to `OC1C=CC2C(CC1)C1(c3ccccc3)OC2(c2ccccc2)c2ccccc21` (configuration not stated), the T/C was 100 % of control under setting [1]; 98 % of control under setting [12]; 99 % of control (dose: 200.0 mg/kg/injection, schedule: Q01DX005 (ip), vehicle: Klucel (hydroxypropylcellulose) (HPC)).

For `Fc1cccc(C(Nc2nncs2)Nc2nncs2)c1`, the T/C was 108 % of control and 97 % of control under setting [1]; 112 % of control and 114 % of control under setting [12]; 159 % of control (dose: 400.0 mg/kg/injection, schedule: Q01DX005 (ip), vehicle: Klucel (hydroxypropylcellulose) (HPC)).

As for `CNC(=O)NC(c1cc(OC)c(OC)c(OC)c1)c1cc2c(cc1O)OCO2` (configuration not stated), the T/C reads like this: (dose: 30.0 mg/kg/injection, schedule: Q01DX005 (ip), vehicle: Klucel (hydroxypropylcellulose) (HPC)) 89 % of control; under setting [8], 87 % of control and 92 % of control; under setting [9], 87 % of control.

In the case of `N=C(N)SCCSC(=N)N`, the T/C was 90 % of control (dose: 25.0 mg/kg/injection, schedule: Q01DX009 (ip), vehicle: saline sonified); 109 % of control (dose: 50.0 mg/kg/injection, schedule: Q01DX009 (ip), vehicle: saline sonified); 100 % of control (dose: 100.0 mg/kg/injection, schedule: Q04DX002 (ip), vehicle: saline); 100 % of control (dose: 200.0 mg/kg/injection, schedule: Q04DX002 (ip), vehicle: saline).

On to `COc1ccc(/C=C\C(C)=N\NC(=S)Nc2ccc(Cl)cc2)cc1`, for which the T/C under setting [6] was 103 % of control; the T/C under setting [7] was 102 % of control; the T/C (dose: 400.0 mg/kg/injection, schedule: Q01DX001 (ip), vehicle: Klucel (hydroxypropylcellulose) (HPC)) is 103 % of control.

`Nc1ccc(S(=O)(=O)NCCO)cc1[N+](=O)[O-]`: the T/C runs as follows: (dose: 100.0 mg/kg/injection, schedule: Q01DX001 (ip), vehicle: saline with Tween-80) 95 % of control; (dose: 200.0 mg/kg/injection, schedule: Q01DX001 (ip), vehicle: saline with Tween-80) 100 % of control; (dose: 400.0 mg/kg/injection, schedule: Q01DX001 (ip), vehicle: saline with Tween-80) 100 % of control.

On to `CN(C)c1ccc(N=Nc2ccc([As](=O)(O)O)cc2)cc1`, for which the T/C (dose: 0.5 mg/kg/injection, schedule: Q01DX009 (ip), vehicle: saline with Tween-80) is 100 % of control and the T/C (dose: 1.0 mg/kg/injection, schedule: Q01DX009 (ip), vehicle: saline with Tween-80) is 95 % of control.

Turning to `OC1(c2cccc(Cl)c2)C2=NCCCN2c2ccccc21` (configuration not stated), the T/C runs as follows: (dose: 6.25 mg/kg/injection, schedule: Q01DX009 (ip), vehicle: saline with Tween-80) 95 % of control; (dose: 12.5 mg/kg/injection, schedule: Q01DX009 (ip), vehicle: saline with Tween-80) 91 % of control.

In the case of `O=C(c1cccs1)C1NO[N+]([O-])=C1c1cccs1` (configuration not stated), the T/C (dose: 6.25 mg/kg/injection, schedule: Q01DX005 (ip), vehicle: saline with Tween-80) was 100 % of control; the T/C (dose: 12.5 mg/kg/injection, schedule: Q01DX005 (ip), vehicle: saline with Tween-80) is 106 % of control; the T/C (dose: 25.0 mg/kg/injection, schedule: Q01DX005 (ip), vehicle: saline with Tween-80) was 115 % of control.

On to `Nc1n[nH]c(N)n1`, for which the T/C is 109 % of control under setting [3] and 163 % of control (dose: 800.0 mg/kg/injection, schedule: Q01DX009 (ip), vehicle: saline with Tween-80).

Regarding `O=C1CSc2nc3ccc(Br)cc3c(=O)n21`, the T/C under setting [10] is 100 % of control; the T/C under setting [11] was 95 % of control; the T/C (dose: 200.0 mg/kg/injection, schedule: Q01DX005 (ip), vehicle: saline with Tween-80) was 111 % of control.

Consider `CN1CC1c1cc2ccccc2c2ccccc12` (configuration not stated), for which the T/C is, setting by setting: (dose: 100.0 mg/kg/injection, schedule: Q01DX001 (ip), vehicle: suspension in saline) 107 % of control; (dose: 200.0 mg/kg/injection, schedule: Q01DX001 (ip), vehicle: suspension in saline) 98 % of control; (dose: 400.0 mg/kg/injection, schedule: Q01DX001 (ip), vehicle: suspension in saline) 101 % of control.
